Measured values taken from patent US20110152166A1, “METHOD OF MODULATION OF PROTEIN PHOSPHORYLATION-DEPENDENT CONFORMATIONAL TRANSITIONS WITH LOW MOLECULAR WEIGHT COMPOUNDS” (priority 2006, published 2011).
Residue numbers refer to the chain shown, from its start. Read-outs that look alike come from different tables or passages of the source. Ends that are not written are not given here.

Assays:
Experiment in all cases: PDK1 activity assay with T308tide
Type in all cases: biochemical
GST-PDK1 [Gln150Met] = target: T1, GST-PDK1 [Gln150Met] (Homo sapiens, UniProt O15530, Q150M)
T1 construct: different protein constructs, comprising the full length protein or the catalytic domain alone; made in house; host or cells: HEK293 cells (pEBG-2T-PDK1 mutant)
T1 sequence (O15530 1-556 Q150M): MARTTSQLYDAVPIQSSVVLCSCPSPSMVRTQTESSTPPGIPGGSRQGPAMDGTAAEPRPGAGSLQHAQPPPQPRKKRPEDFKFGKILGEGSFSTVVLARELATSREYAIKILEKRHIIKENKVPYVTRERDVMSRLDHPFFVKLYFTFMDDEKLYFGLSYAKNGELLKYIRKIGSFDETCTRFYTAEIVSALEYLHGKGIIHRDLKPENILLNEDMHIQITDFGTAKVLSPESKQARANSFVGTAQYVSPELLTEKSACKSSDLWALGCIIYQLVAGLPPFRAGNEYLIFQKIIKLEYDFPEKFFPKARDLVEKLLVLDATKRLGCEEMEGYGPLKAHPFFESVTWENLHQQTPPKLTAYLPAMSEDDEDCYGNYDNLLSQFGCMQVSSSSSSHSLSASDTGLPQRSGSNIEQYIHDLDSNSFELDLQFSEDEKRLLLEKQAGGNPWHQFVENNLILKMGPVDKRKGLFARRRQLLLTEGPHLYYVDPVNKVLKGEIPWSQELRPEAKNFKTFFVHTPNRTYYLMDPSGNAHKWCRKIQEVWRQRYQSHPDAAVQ

GST-PDK1 [Val124Ala] = target: T2, GST-PDK1 [Val124Ala] (Homo sapiens, UniProt O15530, V124A)
T2 construct: different protein constructs, comprising the full length protein or the catalytic domain alone; made in house; host or cells: HEK293 cells (pEBG-2T-PDK1 mutant)
T2 sequence (O15530 1-556 V124A): T1 sequence (O15530 1-556 Q150M) with V124A, M150Q

GST-PDK1 [Gln150Glu] = target: T3, GST-PDK1 [Gln150Glu] (Homo sapiens, UniProt O15530, Q150E)
T3 construct: different protein constructs, comprising the full length protein or the catalytic domain alone; made in house; host or cells: HEK293 cells (pEBG-2T-PDK1 mutant)
T3 sequence (O15530 1-556 Q150E): T1 sequence (O15530 1-556 Q150M) with M150E

AC50 (GST-PDK1 [Gln150Met]) | Max. activity (GST-PDK1 [Gln150Met]) | AC50 (GST-PDK1 [Val124Ala]) | Max. activity (GST-PDK1 [Val124Ala]) | Max. activity (GST-PDK1 [Gln150Glu]) | AC50 (GST-PDK1 [Gln150Glu]; read-out: AC50) | AC50 (GST-PDK1 [Gln150Glu]) | Molecule
177 ± 64 µM | 2.28 ± 0.26 U/mg | > 200 µM | 2.6 ± 0.5 U/mg | 2.5 ± 0.7 U/mg | > 200 µM | – | O=C(O)CSC(CC(=O)c1ccc(Cl)cc1)c1ccccc1 (centres unmarked) [Compound 1]
0.86 ± 0.25 µM | 2.11 ± 0.15 U/mg | 0.21 ± 0.03 µM | 1.91 ± 0.06 U/mg | – | – | No Effect | REPRILSEEEQEMFRDFDYIADWC [PIFtide, reference compound]
